Tested on: white Wistar rats
Experiment: suspension test (24 h), antistress and anxiolytic activity
Assay type: in vivo, rat
Protocol: The anti-stress, anxiolytic and antidepressant effects of the claimed agent and compositions on its basis were determined as follows. […] The suspension test. Five animals from each group were used. Each animal was suspended for 24 hours. After that the sample of whole blood was taken from the sublingual vessels of that animal Then the animal was placed in a desiccator with diethyl ether. 60 minutes later a spinal decapitation of the animal was performed. The abdominal opening was performed and the number of ulcers on the inner surface of the stomach was counted. The obtained whole blood was placed in two test tubes. The whole blood was used to determine the number of eosinophils by the Duncker method. Serum was used to determine the biochemical composition of the blood. Adrenaline and norepinephrine were determined as biochemical indices. These characteristics are specific markers identifying the impact of stress factors of various etiologies. • 2. The transport stress simulation test. Five animals from each group were used. The animals were placed in cages fixed on a laboratory shutter. The duration of the test was 240 minutes. At the end of the test the animals were examined by the techniques described in paragraph 1. A sample of whole blood was taken to determine the number of eosinophils by the Duncker method. The blood serum was studied to measure the amount of enzymes: alanine aminotransferase (ALT), aspartate aminotransferase (AST), creatinine
The tests were carried out on 2-month-old rats of the Wistar line. The groups were selected according to the principle of paired counterparts.
During the course of the study the animals were selected from the formed groups of 10 animals each to participate in stress tests, 5 animals per test. The selection was made on the 7th, 14th, 21st day of the drug administration (experiments were performed on the same days right after selection). The animals were weighed weekly immediately before testing. The obtained data were processed by statistical methods of mathematical statistics. The drug was administered to the animals of the 2nd, 3rd and 4th groups in solution through a gastric tube. Water for injection produced by the “Bufus Novosibkhimpharm” was used as a solvent. The introduced volume was 1.5 ml. The solution was introduced at the same tine 2 hours after morning feeding. The first group was given water for injection by the same way. The volume of administration was 1.5 ml.
During the test a change in the reaction of the animals was observed during prolonged administration of the preparation. Three sequences of the experiment were performed with a periodicity of 7 days. The drug was administered from the first day of the study daily without a break. Thus, accumulation of the drug in the animal body occurred. Five animals from each group were used in each sequence of the experiment (the animals were suspended for 24 hours). After this, blood samples were taken from the sublingual vessels. Further, the animal was euthanized with diethyl ether. Decapitation and dissection of the abdominal cavity were performed to calculate the number of ulcers on the inner surface of the stomach. The rats as objects for the study of psychotropic drugs are a successful model. They react quickly to various stress factors. It is convenient to evaluate the efficacy of drugs due to various factors beginning with physiological, behavioral, biochemical and other parameters. In the suspension test, it is possible to determine the overall psycho-emotional state of the animal in addition to physical endurance.
The physiological, morphological and biochemical characteristics, such as the determination of ulcers in the stomach, eosinophils in whole blood, epinephrine and norepinephrine in blood serum were estimated as main and most informative indicators of the onset of a stress state in a living organism and of overall impact on the body. […]

[1] = 30 mg/kg solution by gastric tube, administration day 7
[2] = 30 mg/kg solution by gastric tube, administration day 14
[3] = 30 mg/kg solution by gastric tube, administration day 21
[4] = 60 mg/kg in the form of pills with cocoa, administration day 7
[5] = 60 mg/kg in the form of pills with cocoa, administration day 14
[6] = 60 mg/kg in the form of pills with cocoa, administration day 21
[7] = 60 mg/kg solution by gastric tube, administration day 7
[8] = 60 mg/kg solution by gastric tube, administration day 14
[9] = 60 mg/kg solution by gastric tube, administration day 21
[10] = 120 mg/kg solution by gastric tube, administration day 7
[11] = 120 mg/kg solution by gastric tube, administration day 14
[12] = 120 mg/kg solution by gastric tube, administration day 21

## O=C1O[C@H]([C@@H](O)CO)C([O-])=C1O.[Li+] [lithium ascorbate]
[1]
  Adrenaline level in blood serum: 8.1 ± 0.52 µg/L
  Eosinophil count in whole blood: 764 ± 6.5
  Noradrenaline level in blood serum: 24.3 ± 2.2 µg/L
  Number of ulcers in the stomach: 4.5 ± 0.9
[2]
  Adrenaline level in blood serum: 6.9 ± 2.77 µg/L
  Eosinophil count in whole blood: 897 ± 7.2
  Noradrenaline level in blood serum: 18.2 ± 5.28 µg/L
  Number of ulcers in the stomach: 2.4 ± 0.2
[3]
  Adrenaline level in blood serum: 6.9 ± 0.97 µg/L
  Eosinophil count in whole blood: 954 ± 9.7
  Noradrenaline level in blood serum: 17.9 ± 0.95 µg/L
  Number of ulcers in the stomach: 1.9 ± 0.4
[4]
  Eosinophil count in whole blood: 653 ± 9.2
  Noradrenaline level in blood serum: 54.8 ± 10.4 µg/L
  Number of ulcers in the stomach: 8.7 ± 1.2
[5]
  Adrenaline level in blood serum: 6.7 ± 0.96 µg/L
  Eosinophil count in whole blood: 913 ± 0.9
  Noradrenaline level in blood serum: 18.4 ± 0.49 µg/L
  Number of ulcers in the stomach: 1.6 ± 0.9
[6]
  Adrenaline level in blood serum: 7.9 ± 3.61 µg/L
  Eosinophil count in whole blood: 954 ± 3.6
  Noradrenaline level in blood serum: 17.8 ± 0.98 µg/L
  Number of ulcers in the stomach: 1.5 ± 0.6
[7]
  Adrenaline level in blood serum: 7.9 ± 0.21 µg/L
  Eosinophil count in whole blood: 791 ± 1.2
  Noradrenaline level in blood serum: 22.1 ± 1.98 µg/L
  Number of ulcers in the stomach: 4.1 ± 0.8
[8]
  Adrenaline level in blood serum: 7.1 ± 1.19 µg/L
  Eosinophil count in whole blood: 866 ± 9.4
  Noradrenaline level in blood serum: 20.3 ± 3.49 µg/L
  Number of ulcers in the stomach: 2.6 ± 0.4
[9]
  Adrenaline level in blood serum: 7.3 ± 2.14 µg/L
  Eosinophil count in whole blood: 910 ± 4.1
  Noradrenaline level in blood serum: 19.3 ± 6.13 µg/L
  Number of ulcers in the stomach: 2.4 ± 0.5
[10]
  Adrenaline level in blood serum: 7.6 ± 0.38 µg/L
  Eosinophil count in whole blood: 768 ± 6.7
  Noradrenaline level in blood serum: 20.2 ± 5.67 µg/L
  Number of ulcers in the stomach: 4.0 ± 0.5
[11]
  Adrenaline level in blood serum: 8.7 ± 3.82 µg/L
  Eosinophil count in whole blood: 885 ± 3.8
  Noradrenaline level in blood serum: 20.3 ± 4.83 µg/L
  Number of ulcers in the stomach: 2.5 ± 1.1
[12]
  Adrenaline level in blood serum: 9.6 ± 3.28 µg/L
  Eosinophil count in whole blood: 911 ± 8.2
  Noradrenaline level in blood serum: 18.4 ± 5.27 µg/L
  Number of ulcers in the stomach: 2.1 ± 0.7
All the tests, oral aqueous solutions
  all measured characteristics versus the control group (group #1): 2.5-3.5 times
Control more than treated
  number of defecation acts, control animals versus treated animals: 3-4 times
Oral aqueous solutions
  ulcer count versus the control group (group #1): more than 10 times
Versus control
  decrease in the level of adrenaline and norepinephrine: 3,5-4 times

Source: patent US10849878B2 (OBSHCHESTVO S OGRANICHENNOY OTVETSTVENNOSTYU “NORMOFARM”, priority 2015, dated 2020)
